Results published in patent publication US9670166B2, “Substituted bicyclic dihydropyrimidinones and their use as inhibitors of neutrophil elastase activity” (Boehringer Ingelheim International GmbH, priority 2013, dated 2017).
Where “and” joins values, the source holds several entries; their conditions need not be identical. Equal values may be shown once.

Columns and labels:
[1] = Metabolic stability with human hepatocytes; assay type: in vitro ADME; settings: human hepatocyte suspension, 1 μM, scaled by well stirred model
[2] = Metabolic stability with human liver microsomes; settings: pooled human liver microsomes 1 mg/ml, test compound 1 μM, 37° C., NADPH
Caco-2 cells = test: Drug transport across human Caco-2 cells; assay type: in vitro ADME; settings: for Efflux ratio: PEBA/PEAB
Aqueous solubility = assay type: physicochemical; settings: McIlvaine buffer pH 6.8, 2.5% DMSO, 24 h shaking
Method: Assay for Determination of Aqueous Solubility […] After 24 h of shaking, the solutions or suspensions are filtered and analyzed by LC-UV. The amount dissolved in buffer is compared to the amount dissolved in the acetonitrile/water (1/1) solution.

Row | Structure (SMILES) | CL (predicted human hepatic in vivo blood clearance) [1] | t1/2 INVITRO [2] | also measured
1 | C[S+]([O-])CCNC(=O)N1C(=O)N(c2cccc(C(F)(F)F)c2)C2=C(C(=O)CC2)C1c1ccc(C#N)cc1 (stereo not shown) [Example 7.6] |  | >2.17 h | 
2 | CS(=O)(=O)N1C(=O)N(c2cccc(C(F)(F)F)c2)C2=C(C(=O)CC2)[C@H]1c1ccc(C#N)cc1 [Example 9A, (R)-4-(3-(Methylsulfonyl)-2,5-dioxo-1-(3-(trifluoromethyl)phenyl)-2,3,4,5,6,7-hexahydro-1H-cyclopenta[d]pyrimidin-4-yl)benzonitrile] | 0 mL/min/kg |  | 
3 | N#Cc1ccc(C2C3=C(CCC3=O)N(c3cccc(C(F)(F)F)c3)C(=O)N2C(=O)NC2(CO)CC2)cc1 (stereo not shown) [Example 41.5] |  |  | Efflux ratio (Caco-2 cells): 8.7; PEBA (Caco-2 cells; basal-to-apical, Caco-2 monolayers, pH 7.2, 37° C.): 77 ×10⁻⁶ cm/s
4 | CCS(=O)(=O)c1cc(C#N)ccc1C1NC(=O)N(c2cccc(C(F)(F)F)c2)C2=C1C(=O)CC2 (stereo not shown) [Example 14, 4-(2,5-Dioxo-1-(3-(trifluoromethyl)phenyl)-2,3,4,5,6,7-hexahydro-1H-cyclopenta[d]pyrimidin-4-yl)-3-(ethylsulfonyl)benzonitrile] | 4 mL/min/kg |  | 
5 | CNC(=O)N1C(=O)N(c2cccc(C(F)(F)F)c2)C2=C(C(=O)CC2)[C@H]1c1ccc(C#N)cc1 [Example 7.1A, (R)-4-(4-Cyanophenyl)-N-methyl-2,5-dioxo-1-(3-(trifluoromethyl)phenyl)-4,5,6,7-tetrahydro-1H-cyclopenta[d]pyrimidine-3(2H)-carboxamide] | 3 mL/min/kg |  | 
6 | C[C@H](O)CNC(=O)N1C(=O)N(c2cccc(C(F)(F)F)c2)C2=C(C(=O)CC2)C1c1ccc(C#N)cc1 (stereo partly shown) [Example 41.1] | 2 mL/min/kg | >2.17 h | Efflux ratio (Caco-2 cells): 8.9 and 4.8
7 | N#Cc1ccc([C@@H]2C3=C(CCC3=O)N(c3cccc(C(F)(F)F)c3)C(=O)N2C(=O)NCCO)cc1 [Example 7.2A, (R)-4-(4-Cyanophenyl)-N-(2-hydroxyethyl)-2,5-dioxo-1-(3-(trifluoromethyl)phenyl)-4,5,6,7-tetrahydro-1H-cyclopenta[d]pyrimidine-3(2H)-carboxamide] | 0 mL/min/kg |  | 
8 | N#Cc1ccc(C2C3=C(CCC3=O)N(c3cccc(C(F)(F)F)c3)C(=O)N2C(=O)NCCCO)cc1 (stereo not shown) [Example 7.3] | 7 mL/min/kg | >2.17 h | Efflux ratio (Caco-2 cells): 7.1
9 | CN(C)C(=O)CN1C(=O)N(c2cccc(C(F)(F)F)c2)C2=C(C(=O)CC2)C1c1ccc(C#N)cc1 (stereo not shown) [Example 6.2] | 6 mL/min/kg |  | 
10 | N#Cc1ccc(C2C3=C(CCC3=O)N(c3cccc(C(F)(F)F)c3)C(=O)N2C(=O)NC2CCOCC2)cc1 (stereo not shown) [Example 41.16] |  | >2.17 h | Efflux ratio (Caco-2 cells): 1.0
11 | C[C@H](CO)NC(=O)N1C(=O)N(c2cccc(C(F)(F)F)c2)C2=C(C(=O)CC2)C1c1ccc(C#N)cc1 (stereo partly shown) [Example 41.4] | 5 mL/min/kg | >2.17 h | Efflux ratio (Caco-2 cells): 8.7
12 | N#Cc1ccc(C2C3=C(CCC3=O)N(c3cccc(C(F)(F)F)c3)C(=O)N2CC(=O)N2CCC2)cc1 (stereo not shown) [Example 6.3] | 4 mL/min/kg | >2.17 h | 
13 | CC(C)(O)CCNC(=O)N1C(=O)N(c2cccc(C(F)(F)F)c2)C2=C(C(=O)CC2)C1c1ccc(C#N)cc1 (stereo not shown) [Example 41.17] | 3 mL/min/kg | >2.17 h | Efflux ratio (Caco-2 cells): 3.5
14 | CS(=O)(=O)c1cc(C#N)ccc1C1C2=C(CCC2=O)N(c2cccc(C(F)F)c2)C(=O)N1C(=O)NC1CC1 (stereo not shown) [Example 53.3] |  |  | Aqueous solubility (Aqueous solubility): 34 µg/mL

Continued, in another order:

Row | CL (predicted human hepatic in vivo blood clearance) [1] | t1/2 INVITRO [2] | Structure (SMILES) | also measured
15 | 1 mL/min/kg |  | CNC(=O)N1C(=O)N(c2cccc(C(F)(F)F)c2)C2=C(C(=O)CC2)C1c1ccc(C#N)cn1 (stereo not shown) [Example 50.1] | 
16 | 2 mL/min/kg |  | CN1C(=O)N(c2cccc(C(F)(F)F)c2)C2=C(C(=O)CC2)[C@H]1c1ccc(C#N)cc1S(C)(=O)=O [Example 25, (S)-4-(3-Methyl-2,5-dioxo-1-(3-(trifluoromethyl)phenyl)-2,3,4,5,6,7-hexahydro-1H-cyclopenta[d]pyrimidin-4-yl)-3-(methylsulfonyl)benzonitrile] | 
17 |  | 1.67 h | CS(=O)(=O)c1cc(C#N)ccc1C1C2=C(CCC2=O)N(c2cccc(C(F)(F)F)c2)C(=O)N1CCCO (stereo not shown) [Example 24.1] | 
18 |  | >2.17 h | N#Cc1ccc(C2C3=C(CCC3=O)N(c3cccc(C(F)F)c3)C(=O)N2C(=O)NCCO)cc1 (stereo not shown) [Example 52.3] | Aqueous solubility (Aqueous solubility): 91 µg/mL
19 | 0 mL/min/kg |  | CS(=O)(=O)c1cc(C#N)ccc1[C@@H]1C2=C(CCC2=O)N(c2cccc(C(F)(F)F)c2)C(=O)N1CC#N [Example 23, (S)-4-(3-(Cyanomethyl)-2,5-dioxo-1-(3-(trifluoromethyl)phenyl)-2,3,4,5,6,7-hexahydro-1H-cyclopenta[d]pyrimidin-4-yl)-3-(methylsulfonyl)benzonitrile] | 
20 | 8 mL/min/kg |  | N#Cc1ccc([C@@H]2C3=C(CCC3=O)N(c3cccc(C(F)F)c3)C(=O)N2C(=O)NCCCO)cc1 [Example 52A, (R)-4-(4-Cyanophenyl)-1-(3-(difluoromethyl)phenyl)-N-(3-hydroxypropyl)-2,5-dioxo-4,5,6,7-tetrahydro-1H-cyclopenta[d]pyrimidine-3(2H)-carboxamide] | 
21 |  | >2.17 h | CS(=O)(=O)c1cc(C#N)ccc1C1C2=C(CCC2=O)N(c2cccc(C(F)(F)F)c2)C(=O)N1CC(=O)N1CC2CC2C1 (stereo not shown) [Example 22.4] | 
22 | 0 mL/min/kg |  | CS(=O)(=O)c1cc(C#N)ccc1[C@H]1NC(=O)N(c2cccc(C(F)(F)F)c2)C2=C1C(=O)CC2 [example 10A, (S)-4-(2,5-Dioxo-1-(3-(trifluoromethyl)phenyl)-2,3,4,5,6,7-hexahydro-1H-cyclopenta[d]pyrimidin-4-yl)-3-(methylsulfonyl)benzonitrile] | AB permeability (comparison in words) (Caco-2 cells; Caco-2, compared to example 44 disclosed in US 2011/0034433): improved AB permeability
23 | 0 mL/min/kg |  | CS(=O)(=O)c1cc(C#N)ccc1C1NC(=O)N(c2cccc(C(F)F)c2)C2=C1C(=O)CC2 (stereo not shown) [Example 15.4, 4-(1-(3-(difluoromethyl)phenyl)-2,5-dioxo-2,3,4,5,6,7-hexahydro-1H-cyclopenta[d]pyrimidin-4-yl)-3-(methylsulfonyl)benzonitrile] | 
24 | 5 mL/min/kg |  | N#Cc1ccc(C2C3=C(CCC3=O)N(c3cccc(C(F)(F)F)c3)C(=O)N2C(=O)N[C@H]2COC[C@H]2O)cc1 (stereo partly shown) [Example 42.6] | Aqueous solubility (Aqueous solubility): 67 µg/mL
25 |  | >2.17 h | CCNC(=O)N1C(=O)N(c2ccnc(C(F)(F)F)c2)C2=C(C(=O)CC2)C1c1ccc(C#N)cc1 (racemic) [Example 54.2] | 
26 | 0 mL/min/kg |  | CC(C)(O)CNC(=O)N1C(=O)N(c2cccc(C(F)(F)F)c2)C2=C(C(=O)CC2)[C@H]1c1ccc(C#N)cc1 [Example 41A, (R)-4-(4-Cyanophenyl)-N-(2-hydroxy-2-methylpropyl)-2,5-dioxo-1-(3-(trifluoro-methyl)phenyl)-4,5,6,7-tetrahydro-1H-cyclopenta[d]pyrimidine-3(2H)-carboxamide] | 
